Test results from US12545639B2, “3-substituted phenylamidine compounds, preparation and use thereof” (PI INDUSTRIES LTD., priority 2019, dated 2026).

Assays:
Alternaria solani = Alternaria solani (early blight of tomato/potato) in vitro test, radial growth on potato dextrose agar; assay type: cell-based; details: 168 h, 300 ppm in potato dextrose agar, 25° C., 60% relative humidity, seven days, read-out: control compared to the untreated check (radial growth)
Pyricularia oryzae [1] = test: whole plant or invertebrate; assay type: in vivo, Pyricularia oryzae on rice; details: read-out: Efficacy (% control), disease severity compared to the untreated check
Rhizoctonia solani = Rhizoctonia solani (rice sheath blight/potato black scurf) in vitro test, radial growth on potato dextrose agar; assay type: cell-based; details: 168 h, 300 ppm in potato dextrose agar, 25° C., 60% relative humidity, seven days, read-out: control compared to the untreated check (radial growth)
Fusarium culmorum = Fusarium culmorum (foot rot of cereals) in vitro test, radial growth on potato dextrose agar; assay type: cell-based; details: 168 h, 300 ppm in potato dextrose agar, 25° C., 60% relative humidity, seven days, read-out: control compared to the untreated check (radial growth)
Outline: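 Compound in 0.3% DMSO mixed into potato dextrose agar, plates seeded with a 5 mm mycelial disc from an actively growing virulent culture. After seven days at 25° C and 60% relative humidity, radial growth was measured against untreated control.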

Pyricularia oryzae [2] = test: microbe, parasite or virus in culture; assay type: cell-based; details: 168 h, read-out: control compared to the untreated check (radial growth)
Botrytis cinerea = Botrytis cinerea (gray mold) in vitro test, radial growth on potato dextrose agar; assay type: cell-based; details: 168 h, 300 ppm in potato dextrose agar, 22° C., 90% relative humidity, seven days, read-out: control compared to the untreated check (radial growth)
Colletotrichum capsici = Colletotrichum capsici (anthracnose) in vitro test, radial growth on potato dextrose agar; assay type: cell-based; details: Colletotrichum truncatum, 168 h; 300 ppm in potato dextrose agar; 25° C., 60% relative humidity, seven days; read-out: control compared to the untreated check (radial growth)
Phakopsora pachyrhizi = Phakopsora pachyrhizi test in soybean, preventive, in vivo on plants; details: in Glycine max, read-out: Efficacy (% control), disease severity compared to the untreated check
[3] = tested on: Septoria lycopersici/Corynespora cassicola (CORYCA); test: Septoria lycopersici/Corynespora cassicola (CORYCA) (leaf spot of tomato) in vitro test, radial growth on potato dextrose agar; assay type: cell-based; details: 168 h, 300 ppm in potato dextrose agar, 25° C., 70% relative humidity, seven days, read-out: control compared to the untreated check (radial growth)

CCN(C)C=Nc1cc(Cl)cc(N(C)c2cccc(Cl)c2)c1C [Compound 180, N′-(5-chloro-3-((3-chlorophenyl)(methyl)amino)-2-methylphenyl)-N-ethyl-N-methylformimidamide]
≥ 70%: inhibition of growth at 300 ppm (Alternaria solani) | pest or weed control at 500 ppm (Pyricularia oryzae [1])

CCN(C)C=Nc1cc(Cl)cc(Cc2ccc(F)cc2)c1C [Compound 124, N′-(5-chloro-3-(4-fluorobenzyl)-2-methylphenyl)-N-ethyl-N-methylformimidamide]
≥ 70%: inhibition of growth at 300 ppm (Rhizoctonia solani) | inhibition of growth at 300 ppm (Fusarium culmorum) | inhibition of growth at 300 ppm (Pyricularia oryzae [2]) | inhibition of growth at 300 ppm (Botrytis cinerea) | inhibition of growth at 300 ppm (Alternaria solani) | inhibition of growth at 300 ppm (Colletotrichum capsici) | pest or weed control at 500 ppm (Phakopsora pachyrhizi) | inhibition of growth at 300 ppm [3]

CCN(C)C=Nc1cc(Cl)cc(Cc2ccc(Cl)cc2)c1C [Compound 126, N′-(5-chloro-3-(4-chlorobenzyl)-2-methylphenyl)-N-ethyl-N-methylformimidamide]
≥ 70%: inhibition of growth at 300 ppm (Rhizoctonia solani) | inhibition of growth at 300 ppm (Fusarium culmorum) | inhibition of growth at 300 ppm (Pyricularia oryzae [2]) | inhibition of growth at 300 ppm (Botrytis cinerea) | inhibition of growth at 300 ppm (Alternaria solani) | inhibition of growth at 300 ppm (Colletotrichum capsici) | pest or weed control at 500 ppm (Phakopsora pachyrhizi) | inhibition of growth at 300 ppm [3]

CCN(C)C=Nc1cc(C)cc(Cc2cccc(C)c2)c1C [Compound 208, N′-(2,5-dimethyl-3-(3-methylbenzyl)phenyl)-N-ethyl-N-methylformimidamide]
≥ 70%: inhibition of growth at 300 ppm (Rhizoctonia solani) | inhibition of growth at 300 ppm (Fusarium culmorum) | inhibition of growth at 300 ppm (Pyricularia oryzae [2]) | inhibition of growth at 300 ppm (Botrytis cinerea) | inhibition of growth at 300 ppm (Alternaria solani) | inhibition of growth at 300 ppm (Colletotrichum capsici) | pest or weed control at 500 ppm (Phakopsora pachyrhizi) | inhibition of growth at 300 ppm [3]

CCN(C)C=Nc1cc(F)cc(Nc2cc(F)cc(F)c2)c1C [Compound 77, N′-(3-((3,5-difluorophenyl)amino)-5-fluoro-2-methylphenyl)-N-ethyl-N-methylformimidamide]
≥ 70%: inhibition of growth at 300 ppm (Rhizoctonia solani) | inhibition of growth at 300 ppm (Fusarium culmorum) | inhibition of growth at 300 ppm (Pyricularia oryzae [2]) | inhibition of growth at 300 ppm (Botrytis cinerea) | inhibition of growth at 300 ppm (Alternaria solani) | inhibition of growth at 300 ppm (Colletotrichum capsici) | pest or weed control at 500 ppm (Phakopsora pachyrhizi) | inhibition of growth at 300 ppm [3]

CCN(C)C=Nc1cc(F)cc(Cc2ccc(Br)cc2F)c1C [Compound 236, N′-(3-(4-bromo-2-fluorobenzyl)-5-fluoro-2-methylphenyl)-N-ethyl-N-methylformimidamide]
≥ 70%: inhibition of growth at 300 ppm (Rhizoctonia solani) | inhibition of growth at 300 ppm (Fusarium culmorum) | inhibition of growth at 300 ppm (Pyricularia oryzae [2]) | inhibition of growth at 300 ppm (Botrytis cinerea) | inhibition of growth at 300 ppm (Alternaria solani) | inhibition of growth at 300 ppm (Colletotrichum capsici) | pest or weed control at 500 ppm (Phakopsora pachyrhizi) | inhibition of growth at 300 ppm [3]

CCN(C)C=Nc1cc(OC)cc(Cc2ccc(Br)cc2)c1C [Compound 287, N′-(3-(4-bromobenzyl)-5-methoxy-2-methylphenyl)-N-ethyl-N-methylformimidamide]
≥ 70%: inhibition of growth at 300 ppm (Rhizoctonia solani) | inhibition of growth at 300 ppm (Fusarium culmorum) | inhibition of growth at 300 ppm (Pyricularia oryzae [2]) | inhibition of growth at 300 ppm (Botrytis cinerea) | inhibition of growth at 300 ppm (Alternaria solani) | inhibition of growth at 300 ppm (Colletotrichum capsici) | pest or weed control at 500 ppm (Phakopsora pachyrhizi) | inhibition of growth at 300 ppm [3]

CCN(C)C=Nc1cc(C)cc(Cc2ccc(F)cc2)c1C [Compound 222, N-ethyl-N′-(3-(4-fluorobenzyl)-2,5-dimethylphenyl)-N-methylformimidamide]
≥ 70%: inhibition of growth at 300 ppm (Rhizoctonia solani) | inhibition of growth at 300 ppm (Fusarium culmorum) | inhibition of growth at 300 ppm (Pyricularia oryzae [2]) | inhibition of growth at 300 ppm (Botrytis cinerea) | inhibition of growth at 300 ppm (Alternaria solani) | inhibition of growth at 300 ppm (Colletotrichum capsici) | pest or weed control at 500 ppm (Phakopsora pachyrhizi) | inhibition of growth at 300 ppm [3]

CCN(C)C=Nc1cc(F)cc(Cc2ccc(F)cc2)c1C [Compound 204, N-ethyl-N′-(5-fluoro-3-(4-fluorobenzyl)-2-methylphenyl)-N-methylformimidamide]
≥ 70%: inhibition of growth at 300 ppm (Rhizoctonia solani) | inhibition of growth at 300 ppm (Fusarium culmorum) | inhibition of growth at 300 ppm (Pyricularia oryzae [2]) | inhibition of growth at 300 ppm (Botrytis cinerea) | inhibition of growth at 300 ppm (Alternaria solani) | inhibition of growth at 300 ppm (Colletotrichum capsici) | pest or weed control at 500 ppm (Phakopsora pachyrhizi) | inhibition of growth at 300 ppm [3]

CCN(C)C=Nc1cc(C)cc(Cc2ccccc2Br)c1C [Compound 221, N′-(3-(2-bromobenzyl)-2,5-dimethylphenyl)-N-ethyl-N-methylformimidamide]
≥ 70%: inhibition of growth at 300 ppm (Rhizoctonia solani) | inhibition of growth at 300 ppm (Fusarium culmorum) | inhibition of growth at 300 ppm (Pyricularia oryzae [2]) | inhibition of growth at 300 ppm (Botrytis cinerea) | inhibition of growth at 300 ppm (Alternaria solani) | inhibition of growth at 300 ppm (Colletotrichum capsici) | pest or weed control at 500 ppm (Phakopsora pachyrhizi) | inhibition of growth at 300 ppm [3]

CCN(C)C=Nc1cc(C)cc(Cc2ccc(F)cc2)c1Cl [Compound 44, N′-(2-chloro-3-(4-fluorobenzyl)-5-methylphenyl)-N-ethyl-N-methylformimidamide]
≥ 70%: inhibition of growth at 300 ppm (Rhizoctonia solani) | inhibition of growth at 300 ppm (Fusarium culmorum) | inhibition of growth at 300 ppm (Pyricularia oryzae [2]) | inhibition of growth at 300 ppm (Botrytis cinerea) | inhibition of growth at 300 ppm (Alternaria solani) | inhibition of growth at 300 ppm (Colletotrichum capsici) | pest or weed control at 500 ppm (Phakopsora pachyrhizi) | inhibition of growth at 300 ppm [3]

CCN(C)C=Nc1cc(Cl)cc(Cc2ccc(Br)cc2)c1C [Compound 125, N′-(3-(4-bromobenzyl)-5-chloro-2-methylphenyl)-N-ethyl-N-methylformimidamide]
≥ 70%: inhibition of growth at 300 ppm (Rhizoctonia solani) | inhibition of growth at 300 ppm (Fusarium culmorum) | inhibition of growth at 300 ppm (Pyricularia oryzae [2]) | inhibition of growth at 300 ppm (Botrytis cinerea) | inhibition of growth at 300 ppm (Alternaria solani) | inhibition of growth at 300 ppm (Colletotrichum capsici) | pest or weed control at 500 ppm (Phakopsora pachyrhizi) | inhibition of growth at 300 ppm [3]

CCN(C)C=Nc1cc(C)cc(Cc2ccc(Br)cc2)c1C [Compound 223, N′-(3-(4-bromobenzyl)-2,5-dimethylphenyl)-N-ethyl-N-methylformimidamide]
≥ 70%: inhibition of growth at 300 ppm (Rhizoctonia solani) | inhibition of growth at 300 ppm (Fusarium culmorum) | inhibition of growth at 300 ppm (Pyricularia oryzae [2]) | inhibition of growth at 300 ppm (Botrytis cinerea) | inhibition of growth at 300 ppm (Alternaria solani) | inhibition of growth at 300 ppm (Colletotrichum capsici) | pest or weed control at 500 ppm (Phakopsora pachyrhizi) | inhibition of growth at 300 ppm [3]

CCN(C)C=Nc1cc(C)cc(Nc2ccc(Cl)cc2)c1Cl [Compound 59, N′-(2-chloro-3-((4-chlorophenyl)amino)-5-methylphenyl)-N-ethyl-N-methylformimidamide]
≥ 70%: inhibition of growth at 300 ppm (Rhizoctonia solani) | inhibition of growth at 300 ppm (Fusarium culmorum) | inhibition of growth at 300 ppm (Pyricularia oryzae [2]) | inhibition of growth at 300 ppm (Botrytis cinerea) | inhibition of growth at 300 ppm (Alternaria solani) | inhibition of growth at 300 ppm (Colletotrichum capsici) | pest or weed control at 500 ppm (Phakopsora pachyrhizi) | inhibition of growth at 300 ppm [3]

CCN(C)C=Nc1cc(C)cc(Cc2ccc(C)cc2)c1Cl [Compound 18, N′-(2-chloro-5-methyl-3-(4-methylbenzyl)phenyl)-N-ethyl-N-methylformimidamide]
≥ 70%: inhibition of growth at 300 ppm (Rhizoctonia solani) | inhibition of growth at 300 ppm (Fusarium culmorum) | inhibition of growth at 300 ppm (Pyricularia oryzae [2]) | inhibition of growth at 300 ppm (Botrytis cinerea) | inhibition of growth at 300 ppm (Alternaria solani) | inhibition of growth at 300 ppm (Colletotrichum capsici) | pest or weed control at 500 ppm (Phakopsora pachyrhizi) | inhibition of growth at 300 ppm [3]

CCN(C)C=Nc1cc(OC)cc(Cc2cccc(F)c2)c1C [Compound 277, N-ethyl-N′-(3-(3-fluorobenzyl)-5-methoxy-2-methylphenyl)-N-methylformimidamide]
≥ 70%: pest or weed control at 500 ppm (Phakopsora pachyrhizi) | pest or weed control at 500 ppm (Pyricularia oryzae [1])

CCN(C)C=Nc1cc(F)cc(Nc2ccc(C(C)(C)C)cc2)c1C [Compound 20, N′-(3-((4-(tert-butyl)phenyl)amino)-5-fluoro-2-methylphenyl)-N-ethyl-N-methylformimidamide]
≥ 70%: inhibition of growth at 300 ppm (Rhizoctonia solani) | inhibition of growth at 300 ppm (Fusarium culmorum) | inhibition of growth at 300 ppm (Pyricularia oryzae [2]) | inhibition of growth at 300 ppm (Botrytis cinerea) | inhibition of growth at 300 ppm (Alternaria solani) | inhibition of growth at 300 ppm (Colletotrichum capsici) | pest or weed control at 500 ppm (Phakopsora pachyrhizi) | inhibition of growth at 300 ppm [3]

CCN(C)C=Nc1cc(C)cc(Cc2cccc(C)c2)c1Cl [Compound 17, N′-(2-chloro-5-methyl-3-(3-methylbenzyl)phenyl)-N-ethyl-N-methylformimidamide]
≥ 70%: inhibition of growth at 300 ppm (Rhizoctonia solani) | inhibition of growth at 300 ppm (Fusarium culmorum) | inhibition of growth at 300 ppm (Pyricularia oryzae [2]) | inhibition of growth at 300 ppm (Botrytis cinerea) | inhibition of growth at 300 ppm (Alternaria solani) | inhibition of growth at 300 ppm (Colletotrichum capsici) | pest or weed control at 500 ppm (Phakopsora pachyrhizi) | inhibition of growth at 300 ppm [3]

CCN(C)C=Nc1cc(OC)cc(Cc2ccc(C)cc2)c1C [Compound 263, N-ethyl-N′-(5-methoxy-2-methyl-3-(4-methylbenzyl)phenyl)-N-methylformimidamide]
≥ 70%: inhibition of growth at 300 ppm (Rhizoctonia solani) | inhibition of growth at 300 ppm (Fusarium culmorum) | inhibition of growth at 300 ppm (Pyricularia oryzae [2]) | inhibition of growth at 300 ppm (Botrytis cinerea) | inhibition of growth at 300 ppm (Alternaria solani) | inhibition of growth at 300 ppm (Colletotrichum capsici) | pest or weed control at 500 ppm (Phakopsora pachyrhizi) | inhibition of growth at 300 ppm [3]
